Data as given in US8530433B2, “Use of icariside II in manufacture of products for preventing or treating male or female sexual dysfunction” (Bjo-Biomed Ltd, priority 2008, dated 2013).

Assays:
[1] = tested on: Porcine vascular endothelial cells (PAE); assay: NOS enzyme activity in vascular endothelial cells (PAE), NOS kit; format: cell-based; conditions: for NOS enzyme activity: PAE cells
Description: Porcine vascular endothelial cells (PAE) were provided by the Institute of Urology, Peking University. The determination of the effect of icariside II on NOS activity in the endothelial cell is conducted using NOS kit (Cayman Chemical company, Ann Arbor, Mich., USA). Vascular endothelial cells (PAE) were treated with different concentrations of icariside II (0, 10^−9, 10^−8, 10^−7, 10^−6, 10^−5 and 10^−4 M) (sildenafil as the control group). 180 μl lysate was added into each culture well. 20 μl supernatant was used for protein concentration assay with BCA protein kit. And, 100 μl supernatant was analyzed for NOS activity with NOS kit (Cayman Chemical company, Ann Arbor, Mich., USA). NOS activity (units/mg)=[(valueNos-measure−valueNOS-blank)÷(38.3×10^6)]×[(2.15+supernatant volume)÷(15×supernatant volume)]÷[protein concentration of each Petri dish].

[2] = tested on: MPG nerve axon of old rats; assay: MPG (major pelvic ganglion) culture, nerve axon growth; format: cell-based, rat; conditions: for MPG nerve axon growth compared to control group: old rats; for MPG nerve axon growth (length of the longest nerve axon): old rats (24-month-old), n = 9
Description: The 24-month-old Sprague-Dawley male rats were used. All experimental animals used in this study were under a protocol approved by the Institutional Animal Care and Use Committee. Rats were anesthetized by intraperitoneal injection of pentobarbital sodium (200 mg/kg). After midline incision on abdomen, major pelvic ganglion was carefully dissected from prostate. MPG culture and treatment: the Bilaterally MPG was rapidly removed and after washing with PBS, DCR were stripped from MPG and cut into 3 pieces with the same size. Reduced Growth Factor Matrigel (RGFM) was diluted three times with serum free RPMI-1640 medium and placed in the 35 mm Petri dish on ice. The diluted RGFM were poured onto the cold sterilized glass cover slip and incubated at 37° C. for 1 hour in 35 mm Petri dishes to make the RGFM steady. Then each MPG was embedded in 40 μl of pre-cooled RGFM and maintained at 37° C. for 5 minute and cultured in RPMI 1640 with 1% penicillin-streptomycin that is maintained in humidified cell culture incubator containing 5% CO2 at 37° C. The cultured MPG tissues were randomly divided into 3 groups: control group, icariside II and sildenafil groups. […] Three MGP from the younger groups and the three MPG from the older groups were cultured with designation dose for 48-72 hours. Measurement of nerve axon growth: at the 48 and 72 hours, Nikon DXM1200 digital camera connected to Zeiss Axiovert microscope and ACT-1 software (20 times magnification) was used to observe the nerve axon growth on the MPG. The digital image was analyzed by […] 4000 and the length of the longest nerve axon was calculated.

PAE-EGFR cells = assay: eNOS protein expression by Western blot in PAE-EGFR cells; format: cell-based, porcine; conditions: 12.5 μM, 24 hr; for eNOS protein expression (normalized to β-actin): PAE-EGFR cells; for eNOS expression levels: PAE-EGFR stable strains
Description: 1) The EGFR gene was subcloned into pGFP plasmid to construct pGFP-EGFR expression vector. With Liposome transfection reagent (Qigen), pGFP-EGFR was transfected into PAE cells. After the selection with 1800 μg/ml of G418, a single cell clone was selected. Western blot confirms the stable expression of EGFR in the PAE-EGFR cells. 2) 5×10^5 of the PAE cells and PAE-EGFR cells were seeded into 35 mm Petri dishes plate in quadruplicate. After 12 hours, PAE and PAE-EGFR cells was treated with 12.5 μM icariside II and sildenafil for 24 hr, respectively. Then the treated PAE and PAE-EGFR cells were lysed with RIPA buffer and subjected to 8% SDS-PAGE electrophoresis. eNOS protein expression was detect by Western blot. After development with super ECL luminescence substrate, the band was analyzed with a Optical density scanner. The results were analyzed by normalizing to β-actin. 3) 5×10^5 of the PAE cells and PAE-EGFR cells were seeded into 35 mm Petri dishes plate in quadruplicate. After 12 hours, PAE and PAE-EGFR cells was treated with 12.5 μM icariside II and sildenafil for 24 hr, respectively, in the presence or absence with 100 μg/ml of EGF. Then the treated PAE and PAE-EGFR cells were lysed with RIPA buffer and subjected to 8% SDS-PAGE electrophoresis. eNOS protein expression was detect by Western blot. After development with super ECL substrate, the band was analyzed with an Optical density scanner. The resulted results were analyzed by normalizing to β-actin.

[3] = tested on: volunteers with erectile dysfunction; conditions: 500 mg/time, single oral administration before sexual activity; cited from earlier work
PDE5 = PDE5 (Homo sapiens, UniProt O76074); conditions: tested in vitro; previous study; cited from earlier work

| Compound | NOS enzyme activity ([1]; 10^−5 M) | NOS enzyme activity ([1]; 10^−6 M) | NOS enzyme activity ([1]; 10^−7 M) | NOS enzyme activity ([1]; 10^−8 M) | NOS enzyme activity ([1]; 10^−9 M) | effect on NOS activity in endothelial cells ([1]; endothelial cells (PAE, PAE-EGFR), p>0.05) | MPG nerve axon growth compared to control group ([2]; 10 nM, 100 nM, 1000 nM) | MPG nerve axon growth (length of the longest nerve axon) ([2]; 10 nM) | MPG nerve axon growth (length of the longest nerve axon) ([2]; 100 nM) | MPG nerve axon growth (length of the longest nerve axon) ([2]; 1000 nM) | eNOS protein expression (normalized to β-actin) (PAE-EGFR cells) | eNOS expression levels (PAE-EGFR cells) | erectile function after single oral administration [3] | NOS enzyme activity ([1]; 10^−6 M, listed as icariside II) | NOS enzyme activity ([1]; 10^−8 M, listed as icariside II) | PDE5 inhibiting potency (PDE5) |
| --- | --- | --- | --- | --- | --- | --- | --- | --- | --- | --- | --- | --- | --- | --- | --- | --- |
| CCCc1nn(C)c2c(=O)[nH]c(-c3cc(S(=O)(=O)N4CCN(C)CC4)ccc3OCC)nc12 [Sildenafil, sildenafil, reference compound] | 6.66 ± 0.65 u/mg | 5.99 ± 0.58 u/mg | 6.32 ± 0.63 u/mg | 5.85 ± 0.579 u/mg | 5.76 ± 0.56 u/mg | no significant effect | did not significantly affect | 215 ± 2.6 μm | 238 ± 3.5 μm | 219 ± 3.2 μm | 1.38 ± 0.013 | 1.12 |  |  |  |  |
| icariside II | 18.66 ± 1.79 u/mg | 19.1 ± 1.9 u/mg | 16.46 ± 1.63 u/mg | 10.71 ± 0.98 u/mg | 8.65 ± 0.87 u/mg |  | significantly increased | 295 ± 5.3 μm* | 325 ± 4.1 μm* | 406 ± 4.3 μm* | 2.08 ± 0.02 | 1.16 | some improvement on erectile function, but the effect is not significant | 19.1±1.891 u/mg | 10.71±1.09 u/mg | significantly lower than sildenafil |
